Data published in PMC10178127, “Immunomodulatory Effects of the Pea Defensin Psd1 in the Caco-2/Immune Cells Co-Culture upon Candida albicans Infection” (International Journal of Molecular Sciences, 2023).

Assays:
[1] = test system: polarized Caco-2 monolayer; assay: Real-time PCR of HBD-2, IL-1β, IL-8/CXCL8 genes in Caco-2 cells; format: cell-based, human
Method: Caco-2 cells were seeded into the wells of 24-well plates in the complete RPMI-1640 medium containing 10% FBS and 1X antibiotic-antimycotic solution and kept in a humidified CO2-incubator (5% CO2, 37 °C). Cells were grown for 18 days and the medium was changed twice a week. The presence of a cell monolayer was checked using an inverted microscope and the plates were incubated one more week for complete polarization of Caco-2 cells. Caco-2 cells were stimulated by adding fresh complete RPMI-1640 medium without antibiotics, containing Psd1 at the final concentration of 2 µM or Candida albicans at the concentration of 5 × 10^4 cells/mL (1.3 × 10^4 cells per cm^2 of Caco-2 monolayer) or yeast cells together with the pea defensin at the same concentration. RPMI-1640 medium only was used in control wells.
Total RNA was isolated from Caco-2 cells using TRIzol reagent (Invitrogen) according to the manufacturer’s instructions after 4 or 24 h of stimulation and cell washing by RPMI-1640 medium. The quality and quantity of total RNA were determined by the A260/280 ratio using NanoPhotometer NP80 (Implen GmbH, München, Germany) as well as agarose gel electrophoresis (Supporting Materials, Figure S3). RNase inhibitor (Evrogen, Moscow, Russia) was added to the final preparation of total RNA. Two μg of total RNA was taken to synthesize the cDNA using MINT-Universal cDNA synthesis kit (Evrogen, Moscow, Russia) containing MMLV-based reverse transcriptase following the manufacturer’s instructions.
Real-time PCR was performed on CFX Opus 96 Real-Time PCR System (Bio-Rad, Hercules, CA, USA) using the SYBR Green PCR kit (Evrogen, Moscow, Russia) and target-specific primers (Supporting Materials, Table S4). The internal control housekeeping gene GAPDH was amplified simultaneously in separate reaction tubes [36]. The reaction conditions were set as follows: initial heating at 95 °C for 3 min, followed by 50 cycles of reactions at 95 °C (15 s), followed by 62 °C (20 s), and finally 72 °C (30 s). Melt curves were obtained using a temperature increment from 50 to 95 °C at 0.5 °C/5 s (Supporting Materials, Figure S4). The threshold cycle number (CT) of reactions was determined using the CFX Maestro 2.2 (version 5.2.008.0222) software (Bio-Rad, Hercules, CA, USA). The efficiency of PCR was monitored by using LinRegPCR online tool (https://www.gear-genomics.com/rdml-tools/). The relative expression of the genes of interest was calculated by normalization to GAPDH using the standard 2^−ΔΔCT method. Unstimulated Caco-2 cells after 4 and 24 h of incubation were used as controls. Experiments were performed twice in six technical replications. Gene expression in controls and experimental samples was compared with a t-test using GraphPad Prism v.8.0.1. The p-values ≤ 0.05 were considered significant.

C. albicans v47a3 = assay: Antifungal activity, microdilution method; format: cell-based, Candida albicans
Method: Antifungal activity of recombinant Psd1 against C. albicans v47a3 was tested by the microdilution method using 96-well microplates mainly as described for this defensin in [15]. Yeast cells in half-modified YPD broth at a final concentration of 10^4 cells/mL were used. Final Psd1 concentrations in the wells were 100, 50, 25, 12.5, 6.25, 3.125, and 1.56 μM. Plates were incubated at 30 °C for 24 h. Yeast growth was estimated using an inverted microscope as well as by measuring the optical density at 540 nm. The percentage of growth inhibition was defined as growth inhibition(%) = ((Acontrol − Asample)/Acontrol) × 100%. All of the experiments were performed twice in triplicate.

[2] = test system: human peripheral blood mononuclear cells (PBMCs); assay: Resazurin-based cell cytotoxicity assay; conditions: 24 h
Method: The cytotoxic properties of the pea defensin Psd1 were investigated by resazurin-based cell cytotoxicity assay as previously described. In brief, PBMCs were seeded in 96-well plates at 2 × 10^6 cells per well in RPMI-1640 supplemented with 10% FBS and kept in a CO2 incubator for 24 h. After this, serial two-fold dilutions of defensin in a complete culture medium were added to the wells at final concentrations from 0.2 to 50 μM and the plates were incubated for 24 h. Resazurin (Sigma) was added at a final concentration of 70 µM, and the plates were incubated overnight (16–18 h). Fluorescent resorufin was registered using a 535/595 filter at PlateReader AF2200 (Eppendorf). Untreated cells were used as negative controls. Non-ionogenic detergent Triton X-100 and membrane-active peptide melittin from honeybee venom were used as positive controls. The cell viability was calculated according to the following equation: cell viability (%) = (Fsample/Fcontrol) × 100%. Cell lysis was monitored with an Olympus CKX41 microscope.

Psd1: pea defensin from Pisum sativum (UNIPROT P81929), recombinant peptide overexpressed in Escherichia coli (KTCEHLADTYRGVCFTNASCDDHCKNKAHLISGTCHNWKCFCTQNC; UniProt P81929 1-46, looked up)
expression of HBD-2, IL-1β and IL-8/CXCL8 genes ([1]; 2 μM Psd1, 24 h): Immunostimulatory action of Psd1 was observable | expression of HBD-2, IL-1β and IL-8/CXCL8 genes ([1]; 2 μM Psd1 alone, 4 h, relative to untreated Caco-2): upregulated all three genes | expression of HBD-2, IL-1β and IL-8/CXCL8 genes ([1]; 2 μM Psd1 with C. albicans vs C. albicans alone, 24 h, p < 0.05): significantly reduced the inhibitory effect of pathogenic fungus | expression of HBD-2, IL-1β and IL-8/CXCL8 genes ([1]; 2 μM Psd1 with C. albicans, 4 h): more pronounced activation of the protective immune response | IC50 (C. albicans v47a3; C. albicans v47a3, 10^4 cells/mL, half-modified YPD broth, 30 °C, 24 h, OD 540 nm, twice in triplicate, read-out: concentration of 50% growth inhibition of yeast cells): 25 µM | effect on the morphology of the fungus (C. albicans v47a3; C. albicans v47a3, inverted microscope): did not affect the morphology of the fungus | cytotoxic activity on PBMCs ([2]; 0.2 to 50 μM): no cytotoxic activity | Cell viability ([2]; PBMCs, 50 μM): 100%
